{"source": "patent US9986723B2", "about": "“Screen and use of therapeutics for pancreatic ductal adenocarcinoma” (The Board of Regents of the University of Texas System, priority 2014, dated 2018)", "key": {"[1]": {"system": "pancreatic ductal adenocarcinoma (PDA) metastases", "assay": "Metastatic burden in five murine models of PDA under low dose warfarin", "type": "in vivo, mouse", "details": "four of the five PDA models; warfarin 0.5-1 mg/L drinking water", "procedure": "(§1) (FIG. 23A) Primary tumor burden after therapy with warfarin. Therapy was initiated when implanted tumors were visible by ultrasound (˜10 mm^3) and consisted of control (normal drinking water) or warfarin, administered in the drinking water at 0.5 mg/L (immunocompetent mice: Pan02 (n=4, control; 3, warfarin), KIC (n=10, control; 8, warfarin)) or 1 mg/L (Panc-1 (n=10, control; 8, warfarin), AsPC-1 (n=8, control; 6, warfarin), Capan-1 (n=10, control; 7, warfarin)) and continued for 2-4 weeks until control mice were moribund. Therapy in KIC mice was initiated at 3 weeks of age and continued for 4 weeks. (FIG. 23B) Metastases were determined grossly upon sacrifice and confirmed by histological evaluation of the liver. […] Incidence of metastasis is also indicated. […] Tumor volume determined by serial ultrasound. […] Therapy with mAb 10C9 (250 μg 2×/week) was initiated when tumors were established as above and persisted for 4 weeks. […] Error bars indicate s.e.m.\n(§2) Animal studies. […] Mice with established tumors, as determined by sonography were randomized to receive normal drinking water or water containing 1 mg/L (˜3.0 μM) warfarin for experiments in immunocompromised mice and 0.5 mg/L (˜1.5 μM) in experiments in immunocompetent animals with or without gemcitabine 25 mg/kg twice weekly depending on experimental design."}, "KIC tumors": {"system": "KIC tumors", "assay": "Low dose warfarin in drinking water, spontaneous genetic PDA model", "type": "in vivo, mouse", "details": "warfarin 0.5 mg/L drinking water, 4 weeks from 3 weeks of age", "procedure": "as §1, §2"}, "[2]": {"system": "PanIN and PDA tumor growth in KIC mice", "assay": "Two week in vivo assay in Rgs16::GFP;KIC mice, Rgs16::GFP intensity at P29", "parameters": "species or system mouse", "text": "Fluorescent microscopy and GFP quantification. Pancreatic expression of Rgs16::GFP in GFP-PDA mice was quantified using a Zeiss Lumar microscope. Images were captured using a single-channel camera (Hamamatsu) in 1344×1024 resolution with 1 sec exposure under 48× magnification with 1×1 binning, analog gain=10, and analog offset=2 settings. Pancreatic fields representing the tumor burden (3-4 fields for P15 pups and 5 or more for pups from P23 onwards) of the pancreas were imaged covering up to 50% of the organ surface area. All images were saved in gray-scale 16-bit tiff format. Images were quantified using NIH ImageJ software with background subtraction with a radius of 50 pixels. A variable and tight threshold was set to eliminate residual background. Intensities of all particles with size ≥5 pixels were summed to obtain the total light intensity per image.\nDrug dosages. GFP-PDA mice were injected intraperitoneally with gemcitabine (Eli Lilly; Indianapolis, Ind., USA) (12.5 mg/kg/day given 3 days/week, dissolved in PBS), Abraxane (Cellgene; Summit, N.J., USA) (5 mg/kg/day given 2 days/week, diluted in 2% saline solution), BGB324 (BerGenBio, Bergen, Norway) (5 mg/kg/day given 5 days/week, dissolved in a mix of DMSO:ethanol:Kolliphor EL:water with 4:4:8:84 v/v ratio), and warfarin (0.2 mg/kg/day given 5 days/week, dissolved in PBS) according to injection schedules specified below. These doses were validated in prior mouse studies (Dineen et al., 2010; Kutluk Cenik et al., 2013; Ostapoff et al., 2013; Aguilera et al., 2014; Ostapoff et al., 2014). […] To verify tumor progression remains constant over the duration of these experiments, assays of untreated mice were interspersed with drug-treated cohorts, and warfarin-treated pups were the final cohort the inventors tested. Gemcitabine, Abraxane and warfarin were purchased from the UT Southwestern clinical pharmacy; BGB324 was a gift from BerGenBio.\nStatistical analysis of GFP expression. GFP values were converted to log10 scale prior to statistical analysis. Graphs and their statistical comparisons were done using Graphpad Prism software with unpaired and two-tailed Student's t test. Significance between groups was indicated as ns (not significant); *p<0.05; **p<0.01; ***p<0.001; ****p<0.0001. Error bars in all the graphs are standard error mean (SEM). See FIGS. 7-8 for additional statistical analysis.\nThe therapeutic screening strategy was to treat KIC pups between P15-P28 (when PanIN and PDA are in rapid expansion) with anticancer drugs, sacrifice mice at P29, and capture Rgs16::GFP intensity with a dissection fluorescence microscope. Images of the five brightest non-overlapping fields of Rgs16::GFP expression were then collected, representing the regions of greatest tumor burden (FIGS. 17A-C)."}}}
{"smiles": "CC(=O)CC(c1ccccc1)c1c(O)c2ccccc2oc1=O", "note": "(racemic) [Warfarin]", "values": [{"measurement": "metastatic burden", "setting": "[1]", "value": "consistently and potently inhibited metastatic burden"}, {"measurement": "primary tumor growth", "setting": "KIC tumors", "value": "reduced primary tumor growth"}, {"measurement": "effect on PanIN lesions and PDA tumor growth (Rgs16::GFP expression)", "setting": "[2]; KIC mice treated P15-P28, i.p., sacrificed P29", "value": "no effect"}, {"measurement": "mice with at least one field in the lower 1% ile of all untreated fields", "setting": "[2]; P29, untreated 7%", "value": 19, "unit": "%"}, {"measurement": "mice with at least one field of Rgs16::GFP expression in pancreas greater than the upper 95% ile of all untreated fields", "setting": "[2]; P29, untreated 14%", "value": 13, "unit": "%"}]}
